# ChEMBL document CHEMBL5321281, “Synthesis and Biological Evaluation of Heterocyclic Ring-Fused 20(S)-Protopanaxadiol Derivatives as Potent Antiosteoporosis Agents” (J Med Chem, 2023)
# Active and inactive are the calls of the source. The rule behind the calls is not given here.
# Key:
# Mus musculus [1] = assay: Protective effect in ovariectomy induced osteoporosis C57BL/6 mouse model assessed as increase in bone surface/tissue volume (BS/TV) in RIO of femur at 1 to 3 mg/kg, ip and measured after 6 weeks by micro-CT analysis; assay type: functional, organism-based; details: dose 1-3 mg/kg
# BMMC [2] = assay: Anti-osteoclastogenic activity in C57/BL6 mouse BMMC cells assessed as inhibition of RANKL-induced osteoclast differentiation incubated for 5 to 7 days in presence of M-CSF by TRAP staining based microscopic analysis relative to control; assay type: functional, cell-based
# [3] = Half life in ICR mouse at 10 mg/kg, po and measured upto 24 hrs by LC-MS/MS analysis; assay type: ADME, organism-based; details: in vivo
# [4] = Oral bioavailability in ICR mouse at 10 mg/kg and measured upto 24 hrs by LC-MS/MS analysis; assay type: ADME, organism-based; details: in vivo
# BMMC [5] = assay: Anti-osteoclastogenic activity in C57/BL6 mouse BMMC cells assessed as reduction in RANKL-induced CTSK protein expression level at 0.1 uM incubated for 1 to 3 days in presence of M-CSF by Western blot anlaysis; assay type: functional, cell-based; details: time 1-3 day
# BMMC [6] = assay: Anti-osteoclastogenic activity in C57/BL6 mouse BMMC cells assessed as inhibition of RANKL-stimulated osteoclastogenesis at 1 uM and compound added at day 1 to 3 (early stage) and measured after 7 days in presence of M-CSF by TRAP staining based microscopic analysis relative to control; assay type: functional; details: 168 h, time 7 day
# Mus musculus [7] = assay: Protective effect in ovariectomy induced osteoporosis C57BL/6 mouse model assessed as increase in trabecular bone number (Tb.N) in RIO of femur at 1 to 3 mg/kg, ip and measured after 6 weeks by micro-CT analysis; assay type: functional, organism-based; details: dose 1-3 mg/kg
# BMMC [8] = assay: Anti-osteoclastogenic activity in C57/BL6 mouse BMMC cells assessed as inhibition of RANKL-induced osteoclast differentiation by observing number of TRAP-positive multinucleated cells at 1 uM and compound added at different times and measured after 7 days in presence of M-CSF by TRAP staining based microscopic analysis relative to control; assay type: functional, cell-based; details: time 7.0 day, TDE = time-dependent effect
# BMMC [9] = assay: Anti-osteoclastogenic activity in C57/BL6 mouse BMMC cells assessed as inhibition of RANKL-induced osteoclast differentiation at 0.1 uM incubated for 5 to 7 days in presence of M-CSF by TRAP staining based microscopic analysis relative to control; assay type: functional; details: time 5-7 day
# BMMC [10] = assay: Anti-osteoclastogenic activity in C57/BL6 mouse BMMC cells assessed as reduction in RANKL-induced MMP-9 mRNA expression level at 0.1 uM incubated for 1 to 5 days in presence of M-CSF by qRT-PCR analysis; assay type: functional, cell-based; details: time 1-5 day, TDE = time-dependent effect
# [11] = Tmax in ICR mouse at 1 mg/kg, iv and measured upto 24 hrs by LC-MS/MS analysis; assay type: ADME, organism-based; details: in vivo
# [12] = AUC (0 to infinity) in ICR mouse at 1 mg/kg, iv and measured upto 24 hrs by LC-MS/MS analysis; assay type: ADME, organism-based; parameters: dose 1 mg/kg, time < 24 hrs, route iv; details: in vivo
# BMMC [13] = assay: Cytotoxicity against C57/BL6 mouse BMMC cells assessed as reduction in cell viability at 10 uM incubated for 24 hrs by CCK-8 assay; assay type: toxicity, cell-based
# [14] = AUC (0 to infinity) in ICR mouse at 10 mg/kg, po and measured upto 24 hrs by LC-MS/MS analysis; assay type: ADME, organism-based; parameters: dose 10 mg/kg, time < 24 hrs, route po; details: in vivo
# BMMC [15] = assay: (§1) Anti-osteoclastogenic activity in C57/BL6 mouse BMMC cells assessed as inhibition of RANKL-induced osteoclast differentiation at 0.01 uM incubated for 5 to 7 days in presence of M-CSF by TRAP staining based microscopic analysis relative to control; assay type: functional; details: time 5-7 day
# BMMC [16] = assay: Anti-osteoclastogenic activity in C57/BL6 mouse BMMC cells assessed as inhibition of RANKL-stimulated osteoclastogenesis at 1 uM and compound added at day 3 to 5 (mid stage) and measured after 5 days in presence of M-CSF by TRAP staining based microscopic analysis relative to control; assay type: functional; details: 120 h, time 5 day
# [17] = AUCt in ICR mouse at 1 mg/kg, iv and measured upto 24 hrs by LC-MS/MS analysis; assay type: ADME, organism-based; parameters: dose 1 mg/kg, time < 24 hrs, route iv; details: in vivo
# BMMC [18] = assay: Anti-osteoclastogenic activity in C57/BL6 mouse BMMC cells assessed as reduction in RANKL-induced TRAP protein expression level at 0.1 uM incubated for 1 to 3 days in presence of M-CSF by Western blot anlaysis; assay type: functional, cell-based; details: time 1-3 day
# Mus musculus [19] = assay: Protective effect in ovariectomy induced osteoporosis C57BL/6 mouse model assessed as increase in trabecular separation (Tb.Sp) in RIO of femur at 1 to 3 mg/kg, ip and measured after 6 weeks by micro-CT analysis; assay type: functional, organism-based; details: dose 1-3 mg/kg
# [20] = Tmax in ICR mouse at 10 mg/kg, po and measured upto 24 hrs by LC-MS/MS analysis; assay type: ADME, organism-based; details: in vivo
# BMMC [21] = assay: Anti-osteoclastogenic activity in C57/BL6 mouse BMMC cells assessed as inhibition of RANKL-stimulated osteoclastogenesis at 1 uM and compound added at day 5 to 7 (late stage) and measured after 3 days in presence of M-CSF by TRAP staining based microscopic analysis relative to control; assay type: functional; details: 72 h, time 3 day
# BMMC [22] = assay: Anti-osteoclastogenic activity in C57/BL6 mouse BMMC cells assessed as reduction in RANKL-induced MMP-9 protein expression level at 0.1 uM incubated for 1 to 3 days in presence of M-CSF by Western blot anlaysis; assay type: functional, cell-based; details: time 1-3 day
# [23] = Cmax in ICR mouse at 1 mg/kg, iv and measured upto 24 hrs by LC-MS/MS analysis; assay type: ADME, organism-based; parameters: dose 1 mg/kg, time < 24 hrs, route iv; details: in vivo
# [24] = Apparent volume of distribution in ICR mouse at 1 mg/kg, iv and measured upto 24 hrs by LC-MS/MS analysis; assay type: ADME, organism-based; details: in vivo, read-out: Vz
# BMMC [25] = assay: Anti-osteoclastogenic activity in C57/BL6 mouse BMMC cells assessed as reduction in RANKL-induced CTSK mRNA expression level at 0.1 uM incubated for 1 to 5 days in presence of M-CSF by qRT-PCR analysis; assay type: functional, cell-based; details: time 1-5 day, TDE = time-dependent effect
# BMMC [26] = assay: Anti-osteoclastogenic activity in C57/BL6 mouse BMMC cells assessed as inhibition of RANKL-induced osteoclast differentiation at 0.01 to 5 uM incubated for 5 to 7 days in presence of M-CSF by TRAP staining based microscopic analysis relative to control; assay type: functional, cell-based; details: dose 0.01-5 µM, time 5-7 day
# [27] = Half life in ICR mouse at 1 mg/kg, iv and measured upto 24 hrs by LC-MS/MS analysis; assay type: ADME, organism-based; details: in vivo
# [28] = Cmax in ICR mouse at 10 mg/kg, po and measured upto 24 hrs by LC-MS/MS analysis; assay type: ADME, organism-based; parameters: dose 10 mg/kg, time < 24 hrs, route po; details: in vivo
# [29] = Microsomal stability in mouse liver microsomes assessed as intrinsic clearance at 1 uM and measured upto 60 mins by LC-MS/ MS analysis; assay type: ADME, Microsome; details: read-out: CLH
# BMMC [30] = assay: as §1, with “differentiation by measuring number of TRAP-positive multinucleated cells” for “differentiation”, “0.01 to 5” for “0.01”; assay type: functional, cell-based; details: dose 0.01-5 µM, time 5-7 day
# Mus musculus [31] = assay: Protective effect in ovariectomy induced osteoporosis C57BL/6 mouse model assessed as inhibition of OVX-induced osteoblast activity by analysing osteoblast number in proximal femur at 3 mg/kg, ip and measured after 6 weeks by TRAP staining based microscopic analysis; assay type: functional, organism-based
structure (smiles),measurement,setting,value
C=C(CCC=C(C)C)[C@H]1CC[C@]2(C)[C@@H]1[C@H](O)C[C@@H]1[C@@]3(C)Cc4cnc(C)nc4C(C)(C)[C@@H]3CC[C@]12C,Activity,Mus musculus [1],Active
same,IC50,BMMC [2],0.0103 µM
same,half-life,[3],61.8 min
same,bioavailability,[4],10.5%
same,Activity,BMMC [5],Active
same,inhibition at 1 µM,BMMC [6],98.8%
same,Activity,Mus musculus [7],Active
same,inhibition,BMMC [8],Tde
same,inhibition at 0.1 µM,BMMC [9],100%
same,Activity,BMMC [10],Tde
same,Tmax,[11],4.8 min
same,AUC(0-inf),[12],1170 ng·h/mL
same,Activity,BMMC [13],>= 100%
same,AUC(0-inf),[14],1230 ng·h/mL
same,inhibition at 0.01 µM,BMMC [15],44.4%
same,inhibition at 1 µM,BMMC [16],94.4%
same,AUC(0-t) at 24 h,[17],1170 ng·h/mL
same,Activity,BMMC [18],Active
same,Activity,Mus musculus [19],Active
same,Tmax,[20],60 min
same,inhibition at 1 µM,BMMC [21],62.3%
same,Activity,BMMC [22],Active
same,Cmax,[23],4180 ng/mL
same,Vd,[24],0.413 L/kg
same,Activity,BMMC [25],Tde
same,inhibition,BMMC [26],Dose-Dependent Effect
same,half-life,[27],20.2 min
same,Cmax,[28],823 ng/mL
same,microsomal CLint at 1 µM,[29],37.4 µL/min/mg
same,inhibition,BMMC [30],Dose-Dependent Effect
same,inhibition,Mus musculus [31],inactive
